Here are results for 5 compounds from ChEMBL document CHEMBL1781921, “Concise synthesis and CDK/GSK inhibitory activity of the missing 9-azapaullones” (Bioorg Med Chem Lett, 2010).

Assay [1] deals with T1, Casein kinase I isoform alpha (Sus scrofa, UniProt O19175).
T1 sequence (O19175 whole entry): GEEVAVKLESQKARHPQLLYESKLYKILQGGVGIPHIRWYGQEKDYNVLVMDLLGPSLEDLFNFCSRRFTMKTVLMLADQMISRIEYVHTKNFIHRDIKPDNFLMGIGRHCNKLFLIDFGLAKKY
Put plainly: Inhibition of porcine brain CK1 assessed as incorporation of [gamma-33P]-ATP into RRKHAAIGpSAYSITA substrate after 30 mins by scintillation counting.

For assay [2], the target named is Cyclin-dependent kinase 2/cyclin A (Homo sapiens, UniProt P24941). Put plainly: Inhibition of human recombinant CDK2/cyclin A assessed as incorporation of [gamma-33P]-ATP into histone H1 substrate after 30 mins by scintillation counting. Format: protein-complex assay.
The target in assay [3] is Dual specificity protein kinase CLK1 (Homo sapiens, UniProt P49759). Put plainly: Inhibition of CLK1.
Dual specificity protein kinase CLK1, sequence (P49759 whole entry): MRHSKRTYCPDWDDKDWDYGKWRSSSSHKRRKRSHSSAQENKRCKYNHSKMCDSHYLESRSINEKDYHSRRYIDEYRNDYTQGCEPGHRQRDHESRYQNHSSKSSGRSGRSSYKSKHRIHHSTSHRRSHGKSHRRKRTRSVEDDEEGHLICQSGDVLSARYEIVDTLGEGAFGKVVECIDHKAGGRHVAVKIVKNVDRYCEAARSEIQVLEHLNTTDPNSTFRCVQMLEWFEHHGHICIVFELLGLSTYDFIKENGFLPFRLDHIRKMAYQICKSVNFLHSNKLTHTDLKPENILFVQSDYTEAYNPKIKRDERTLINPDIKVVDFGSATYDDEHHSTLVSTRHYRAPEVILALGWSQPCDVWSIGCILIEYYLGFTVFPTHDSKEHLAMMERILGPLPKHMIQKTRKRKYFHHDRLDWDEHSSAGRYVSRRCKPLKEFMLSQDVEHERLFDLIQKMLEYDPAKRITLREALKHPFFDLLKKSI
For assay [4], the target named is Cyclin-dependent kinase 5/CDK5 activator 1 (Homo sapiens, UniProt Q00535). Put plainly: Inhibition of human recombinant CDK5/p25 assessed as incorporation of [gamma-33P]-ATP into histone H1 substrate after 30 mins by scintillation counting. In kind it is protein-complex assay.
Cyclin-dependent kinase 5/CDK5 activator 1, sequence (Q00535 whole entry, the tested form may be a part): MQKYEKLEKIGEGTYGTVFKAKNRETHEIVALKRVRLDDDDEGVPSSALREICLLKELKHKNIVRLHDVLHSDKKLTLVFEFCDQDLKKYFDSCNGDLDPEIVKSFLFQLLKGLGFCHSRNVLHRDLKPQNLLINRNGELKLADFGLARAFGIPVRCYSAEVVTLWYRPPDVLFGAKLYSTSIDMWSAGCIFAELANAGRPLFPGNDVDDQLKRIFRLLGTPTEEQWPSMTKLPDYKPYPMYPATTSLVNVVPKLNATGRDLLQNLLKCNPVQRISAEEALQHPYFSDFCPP
Cyclin-dependent kinase 5/CDK5 activator 1, sequence (Q15078 whole entry, further chain, the tested form may be a part): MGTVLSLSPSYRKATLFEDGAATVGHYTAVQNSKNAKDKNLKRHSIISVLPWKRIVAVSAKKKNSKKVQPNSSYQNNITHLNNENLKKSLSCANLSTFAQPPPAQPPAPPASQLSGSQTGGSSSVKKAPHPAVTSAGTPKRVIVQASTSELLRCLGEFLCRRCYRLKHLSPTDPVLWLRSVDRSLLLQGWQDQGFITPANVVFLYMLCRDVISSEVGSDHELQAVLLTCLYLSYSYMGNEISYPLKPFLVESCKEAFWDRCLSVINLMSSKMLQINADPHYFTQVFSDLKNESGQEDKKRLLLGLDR
Assay [5] has as its target CDK9/cyclin T1 (Homo sapiens, UniProt P50750). Put plainly: Inhibition of human recombinant CDK9/cyclin T expressed in insect cells assessed as incorporation of [gamma-33P]-ATP in to pRB fragment (773 to 928) substrate after 30 mins by scintillation counting.
Assay [6] deals with T2, Glycogen synthase kinase 3 (Plasmodium falciparum (isolate 3D7), UniProt O77344).
T2 sequence (O77344 whole entry): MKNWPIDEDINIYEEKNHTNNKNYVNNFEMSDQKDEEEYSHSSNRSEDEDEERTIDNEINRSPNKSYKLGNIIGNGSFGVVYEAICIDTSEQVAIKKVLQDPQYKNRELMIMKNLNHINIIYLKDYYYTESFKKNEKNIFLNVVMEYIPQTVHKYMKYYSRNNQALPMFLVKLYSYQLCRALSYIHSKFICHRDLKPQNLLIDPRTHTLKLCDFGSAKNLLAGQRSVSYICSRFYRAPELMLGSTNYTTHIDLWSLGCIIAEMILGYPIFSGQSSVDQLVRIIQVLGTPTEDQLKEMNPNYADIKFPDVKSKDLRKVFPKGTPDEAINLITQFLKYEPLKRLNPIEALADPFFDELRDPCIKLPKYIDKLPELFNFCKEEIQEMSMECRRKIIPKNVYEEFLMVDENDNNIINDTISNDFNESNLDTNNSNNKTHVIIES
Put plainly: Inhibition of Plasmodium falciparum GSK3.

The nature of assay [7]: Inhibition of M-phase starfish oocytes CDK1/cyclin B assessed as incorporation of [gamma-33P]-ATP into histone H1 substrate after 30 mins by scintillation counting. The following applies: oocyte. Format: cell-based, Asteroidea.
Assay [8] addresses Dual specificity tyrosine-phosphorylation-regulated kinase 1A (Rattus norvegicus, UniProt Q63470). Put plainly: Inhibition of rat recombinant GST-fused DYRK1A expressed in Escherichia coli assessed as assessed as incorporation of [gamma-33P]-ATP into myelin basic protein after 30 mins by scintillation counting.

CDK9/cyclin T1, sequence (O60563 whole entry, the tested form may be a part): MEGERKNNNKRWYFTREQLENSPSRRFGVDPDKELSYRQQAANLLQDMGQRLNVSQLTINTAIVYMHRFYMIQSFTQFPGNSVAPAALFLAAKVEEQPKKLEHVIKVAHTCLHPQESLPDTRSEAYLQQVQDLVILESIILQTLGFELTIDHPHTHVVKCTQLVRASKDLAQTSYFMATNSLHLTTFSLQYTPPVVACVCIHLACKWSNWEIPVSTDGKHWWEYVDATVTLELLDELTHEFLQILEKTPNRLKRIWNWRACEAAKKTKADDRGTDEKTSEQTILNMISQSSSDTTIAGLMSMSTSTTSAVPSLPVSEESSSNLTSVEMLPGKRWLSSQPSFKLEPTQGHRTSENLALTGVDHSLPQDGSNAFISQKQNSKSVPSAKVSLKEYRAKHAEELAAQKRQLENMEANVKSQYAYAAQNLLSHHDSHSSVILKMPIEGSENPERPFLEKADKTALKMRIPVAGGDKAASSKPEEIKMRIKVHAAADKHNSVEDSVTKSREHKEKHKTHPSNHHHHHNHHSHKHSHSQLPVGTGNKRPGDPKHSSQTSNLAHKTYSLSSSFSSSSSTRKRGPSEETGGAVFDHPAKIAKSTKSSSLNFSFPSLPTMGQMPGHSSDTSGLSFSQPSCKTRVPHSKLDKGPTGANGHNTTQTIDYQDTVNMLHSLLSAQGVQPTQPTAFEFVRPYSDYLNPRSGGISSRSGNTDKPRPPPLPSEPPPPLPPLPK
CDK9/cyclin T1, sequence (P50750 whole entry, the tested form may be a part): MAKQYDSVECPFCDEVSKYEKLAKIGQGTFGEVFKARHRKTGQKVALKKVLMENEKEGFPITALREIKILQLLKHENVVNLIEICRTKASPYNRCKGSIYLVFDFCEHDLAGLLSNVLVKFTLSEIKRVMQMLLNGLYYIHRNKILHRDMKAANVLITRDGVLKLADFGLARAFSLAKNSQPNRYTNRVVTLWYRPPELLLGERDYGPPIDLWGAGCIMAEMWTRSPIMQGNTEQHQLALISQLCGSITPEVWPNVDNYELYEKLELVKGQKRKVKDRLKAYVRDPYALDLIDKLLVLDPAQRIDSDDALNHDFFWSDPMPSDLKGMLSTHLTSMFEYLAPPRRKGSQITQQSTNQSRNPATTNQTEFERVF

As a reminder, the IC50 is the midpoint of a concentration-inhibition curve. In the case of `O=C1Cc2c([nH]c3ccncc23)-c2ccccc2N1`, the IC50 in assay [1] was over 10 µM; in assay [2], 2.1 µM; in assay [3], over 10 µM; in assay [4] it was 3 µM; in assay [5] it was 0.22 µM; in assay [6] it was over 10 µM.

Take `O=C1Cc2c([nH]c3cc[n+](Cc4ccccc4)cc23)-c2ccccc2N1`: the IC50 in assay [1] is over 10 µM; in assay [2], over 10 µM; in assay [3], over 10 µM; in assay [4], over 10 µM; in assay [7] it was over 10 µM; in assay [5] it was 7.4 µM. The IC50 in assay [8] and in assay [6] was over 10 µM in each case.

As for `O=C1Cc2c([nH]c3cc[n+]([O-])cc23)-c2ccccc2N1`, the IC50 is over 10 µM in assay [1]; 6.2 µM in assay [2]; over 10 µM in assay [3]; 7.3 µM in assay [4]; 5.7 µM in assay [7]; 0.24 µM in assay [5]. Moreover, the IC50 in assay [8] and in assay [6] was over 10 µM each time.

In the case of `O=C1Cc2c([nH]c3ccc(Br)cc23)-c2ccccc2N1` [KENPAULLONE], the concentration for half-maximal inhibition (IC50) in assay [1] was over 10 µM; in assay [3] it was over 10 µM; in assay [7], 0.5 µM; in assay [5], 0.064 µM; in assay [8], over 10 µM; in assay [6], over 10 µM.

In the case of `O=C1Cc2c([nH]c3ccccc23)-c2ccccc2N1` [PAULLONE], the IC50 in assay [2] came out at 2.7 µM; in assay [7] it was 3 µM; in assay [5], 0.81 µM.
